Laboratory results as given in US20220354949A1, “NOVEL COMPOUNDS” (XENIOPRO GmbH, priority 2018, published 2022).

How the values were obtained:
Format in all cases: cell-based
[1] = system: RPMI-8402 cells (human T cell acute lymphoblastic leukemia cells); assay: Proliferation assay (alamarBlue) with RPMI-8402 cells
Text: (§1) The antiproliferative activities of compounds falling under formula (Ia), (Ib) and (Ic), respectively, were investigated on cells or cell lines originating from a disorder of the haematopoietic system, including the myeloid cell compartment and the lymphoid cell compartment (T-cells and B-cells), the neuroendocrine system, the cervix, the breast, the ovaries, the lung, the gastrointestinal tract, and the mucosal epithelium, as well as from the skin epithelium and from the muscle. To this end, HL-60 cells, NB-4 cells, HH cells, RPMI-8402 cells, TANOUE cells, TT cells, HeLa cells, MDA-MB-231 cells, FU-OV-1 cells, LOU-NH91 cells, 23132/87 cells, CAL-27 cells, BHY cells, SCC-25 cells, A-431 cells, human primary epidermal keratinocytes (HPEK), and C2C12 cells were seeded into 96-well plates suitable for fluorescence assays (CORNING #3598) at following initial cell numbers: 1000 cells per well for HL-60; 1000 cells per well for NB-4; 5000 cells per well for HH; 5000 cells per well for RPMI-8402; 1500 cells per well for TANOUE; 9000 cells per well for TT; 2000 cells per well for HeLa; 3000 cells per well for MDA-MB-231; 3000 cells per well for FU-OV-1; 4000 cells per well for LOU-NH91; 2000 cells per well for 23132/87; 2000 cells per well for CAL-27; 1500 cells per well for BHY; 1500 cells per well for SCC-25; 700 cells per well for A-431; 1000 cells per well for HPEK; 500 cells per well for C2C12. The cells were treated with compounds at indicated final concentrations (diluted from the 1000× stock-solutions in DMSO to a final DMSO concentration of 0.1% v/v in H2O (Water For Injection, WFI, Fisherscientific #10378939)) or with the empty carrier DMSO at 0.1% v/v as control for 5 days. At day 5 after starting the treatments the cells were subjected to the alamarBlue® Proliferation Assay (Bio-Rad Serotec GmbH, BUF012B) according to the protocol of the manufacturer. The readout was taken with a multi-well plate-reader in the fluorescence mode with applying a filter for excitation at 560 nm (band width 10 nm) and for emission at 590 nm (band width 10 nm). Control treatments for growth inhibition with commercial compounds such as Methotrexate (MTREX) and Resveratrol (RES) were included on every plate. Some of the test compounds of the present invention were obtained and applied as their salts. According cases are indicated in the column “Specification” in Table 55 to Table 92 and by their sum formula in Table 93.
(§2) The assays were performed in duplicate or more replicates of independent single experiments each containing a six-fold replicate for every condition. For every individual plate, the measured fluorescence intensity values of the conditions with compound treatment were normalized against the corresponding equally weighted arithmetic mean of the fluorescence intensity values of the six DMSO treated control wells in order to obtain the relative values to a baseline level of 1.0.
(§3) Two independent outlier analyses were performed according to the methods by Peirce and Chauvenet (Ross, Journal of Engineering Technology 2003, 1-12). Outliers confirmed by at least one of the methods were excluded from the calculations but not more than one value out of six per compound within a single experiment. The weighted arithmetic mean (here abbreviated as AVEw) for each compound was calculated from the normalized values over all independent replicates of the single experiments comprising the six replicates each. The corresponding standard deviation for the weighted arithmetic mean was calculated according to the method described by Bronstein et al. (Bronstein, Semendjajew, Musiol, Müihlig, Taschenbuch der Mathematik, 5th edition 2001 (German), publisher: Verlag Harri Deutsch, Frankfurt am Main and Thun) and was combined with the Gauß' error propagation associated with the performed calculation for the normalization. The resulting standard deviation is herein referred to as “combined standard deviation”. […]

[2] = system: MDA-MB-231 cells (human breast carcinoma cells); assay: Proliferation assay (alamarBlue) with MDA-MB-231 cells; settings: compound at 20 μM
Text: as §1, §2, §3

[3] = system: FU-OV-1 cells (human ovarian carcinoma cells); assay: Proliferation assay (alamarBlue) with FU-OV-1 cells
Text: as §1, §2, §3

[4] = system: TANOUE cells (human B cell leukemia cells); assay: Proliferation assay (alamarBlue) with TANOUE cells
Text: as §1, §2, §3

[5] = system: HH cells (human cutaneous T-cell lymphoma cells); assay: Proliferation assay (alamarBlue) with HH cells
Text: as §1, §2, §3

[6] = system: A-431 cells (human epidermoid squamous cell carcinoma cells); assay: Proliferation assay (alamarBlue) with A-431 cells; settings: for Activity Range (weighted arithmetic mean AVEw of normalized fluorescence intensity, relative to DMSO basis level 1.0): 20 μM
Text: as §1, §2, §3

Question: With `Oc1ccc(C=Cc2cc(O)cc(O)c2)cc1` [RES, Resveratrol] as the molecule, how does the “Activity Range: weighted arithmetic mean (AVEw) of normalized fluorescence intensity, proliferation assay with RPMI-8402 cells” value ([1]; 20 μM, relative to DMSO basis level 1.0, Table 61 (novel compounds)) read?
Answer: 0.6 ± 0.0

Question: And the “Activity Range: weighted arithmetic mean (AVEw) of normalized fluorescence intensity, proliferation assay with RPMI-8402 cells” value ([1]; 20 μM, relative to DMSO basis level 1.0, Table 62 (compounds disclosed in PCT/EP2018/054686))?
Answer: 0.6 ± 0.0

Question: And the “Activity Range: weighted arithmetic mean (AVEw) of normalized fluorescence intensity, proliferation assay with RPMI-8402 cells” value ([1]; control at 40 μM, relative to DMSO basis level 1.0, Table 61)?
Answer: 0.1 ± 0.0

Question: And the “Activity Range: weighted arithmetic mean (AVEw) of normalized fluorescence intensity, proliferation assay with RPMI-8402 cells” value ([1]; control at 40 μM, relative to DMSO basis level 1.0, Table 62)?
Answer: 0.1 ± 0.0

Question: And the activity at 20 µM ([2]; Homo sapiens, Table 69 (novel compounds), read-out: Activity Range: weighted arithmetic mean (AVEw) of normalized fluorescence intensity relative to DMSO basis level 1.0)?
Answer: 60%

Question: And the “Activity Range: weighted arithmetic mean (AVEw) of normalized fluorescence intensity relative to DMSO basis level 1.0” value ([2]; Table 70 (compounds of PCT/EP2018/054686))?
Answer: 0.6 ± 0.0

Question: What about the “Activity Range: weighted arithmetic mean (AVEw) of normalized fluorescence intensity relative to DMSO basis level 1.0” value ([3]; compound at 20 μM, Table 71 (novel compounds)) of the same molecule?
Answer: 0.7 ± 0.0

Question: What about the “Activity Range: weighted arithmetic mean (AVEw) of normalized fluorescence intensity relative to DMSO basis level 1.0” value ([3]; compound at 20 μM, Table 72 (compounds of PCT/EP2018/054686)) of the same molecule?
Answer: 0.7 ± 0.0

Question: What about the “Activity Range: weighted arithmetic mean (AVEw) of normalized fluorescence intensity relative to DMSO basis level 1.0” value ([3]; control at 40 μM, Table 71) of the same molecule?
Answer: 0.4 ± 0.0

Question: And the “Activity Range: weighted arithmetic mean (AVEw) of normalized fluorescence intensity relative to DMSO basis level 1.0” value ([3]; control at 40 μM, Table 72)?
Answer: 0.4 ± 0.0

Question: And the activity at 20 µM ([4]; Homo sapiens, B-cell, compound at 20 μM, Table 63 (novel compounds), read-out: Activity Range: weighted arithmetic mean (AVEw) of normalized fluorescence intensity relative to DMSO basis level 1.0)?
Answer: 10%

Question: And the activity at 40 µM ([4]; Homo sapiens, B-cell, control at 40 μM, Table 63, read-out: Activity Range: weighted arithmetic mean (AVEw) of normalized fluorescence intensity relative to DMSO basis level 1.0)?
Answer: 0%

Question: And the “Activity Range: weighted arithmetic mean (AVEw) of normalized fluorescence intensity relative to DMSO basis level 1.0” value ([4]; compound at 20 μM, Table 64 (compounds of PCT/EP2018/054686))?
Answer: 0.1 ± 0.0

Question: What about the “Activity Range: weighted arithmetic mean (AVEw) of normalized fluorescence intensity relative to DMSO basis level 1.0” value ([4]; control at 40 μM, Table 64) of the same molecule?
Answer: 0.0 ± 0.0

Question: What about the “Activity Range: weighted arithmetic mean (AVEw) of normalized fluorescence intensity, proliferation assay with HH cells” value ([5]; 20 μM, relative to DMSO basis level 1.0, Table 59 (novel compounds)) of the same molecule?
Answer: 0.6 ± 0.1

Question: What about the “Activity Range: weighted arithmetic mean (AVEw) of normalized fluorescence intensity, proliferation assay with HH cells” value ([5]; control at 40 μM, relative to DMSO basis level 1.0, Table 59) of the same molecule?
Answer: 0.4 ± 0.1

Question: And the “Activity Range: weighted arithmetic mean (AVEw) of normalized fluorescence intensity, proliferation assay with HH cells” value ([5]; control at 40 μM, relative to DMSO basis level 1.0, Table 60)?
Answer: 0.4 ± 0.1

Question: What about the “Activity Range (weighted arithmetic mean AVEw of normalized fluorescence intensity, relative to DMSO basis level 1.0)” value ([6]; Table 84 (novel compounds)) of the same molecule?
Answer: 0.6 ± 0.0

Question: What about the “Activity Range (weighted arithmetic mean AVEw of normalized fluorescence intensity, relative to DMSO basis level 1.0)” value ([6]; Table 85 (compounds disclosed in PCT/EP2018/054686)) of the same molecule?
Answer: 0.6 ± 0.0

Question: What about the “Activity Range (weighted arithmetic mean of normalized fluorescence intensity, relative to DMSO basis level 1.0)” value ([6]; control at 40 μM, Table 84) of the same molecule?
Answer: 0.2 ± 0.0
